# Experimental data from PubChem BioAssay AID1259408 (Genetic Toxicology Data Bank (GENE-TOX), 2018).
# Calls of active or inactive are those of the source. The rule behind the calls is not given here.
# Tested on: GENE-TOX genotoxicity assays, various organisms and cells
# Assay: GENE-TOX mutagenicity studies
# [1] = Species/Cell Type: Human lymphocytes, Assay Type: Sister-chromatid exchange (SCE) in vitro, Assay Code: SCL+, Evaluation Type: Evaluation B (Post-1980)
# [2] = Species/Cell Type: Human, Assay Type: Sister-chromatid exchange (SCE) in vitro, Assay Code: SC1+, Evaluation Type: Evaluation B (Post-1980)
# [3] = Species/Cell Type: Drosophila melanogaster, Assay Type: Sex-linked recessive lethal gene mutation, Assay Code: SRLT, Evaluation Type: Evaluation A (Pre-1980)
# [4] = Species/Cell Type: Salmonella typhimurium (one or more of the five standard strains: TA98, TA100, TA1535, TA1537, and TA1538), Assay Type: Histidine reverse gene mutation, Ames assay, Assay Code: SALT, Evaluation Type: Evaluation A (Pre-1980)
# [5] = Species/Cell Type: Rodents, Sex: Male, Assay Type: Dominant lethal test, Assay Code: DLT-, Evaluation Type: Evaluation A (Pre-1980)
# [6] = Species/Cell Type: Salmonella typhimurium (one or more of the five standard strains: TA98, TA100, TA1535, TA1537, and TA1538), Assay Type: Histidine reverse gene mutation, Ames assay, Assay Code: SAL+*, Activation: With metabolic activation, Evaluation Type: Evaluation A (Pre-1980)
# [7] = Species/Cell Type: Escherichia coli polA (W3119 vs P3478), Assay Type: Rec-assay, DNA effects (bacterial DNA repair), Assay Code: RE1T, Evaluation Type: Evaluation A (Pre-1980)
# [8] = Species/Cell Type: Salmonella typhimurium (one or more of the five standard strains: TA98, TA100, TA1535, TA1537, and TA1538), Assay Type: Histidine reverse gene mutation, Ames assay, Assay Code: SAL+, Evaluation Type: Evaluation A (Pre-1980)
# [9] = Species/Cell Type: Nonhuman, Assay Type: Sister-chromatid exchange (SCE) in vitro, Assay Code: SC2+, Evaluation Type: Evaluation B (Post-1980)
# [10] = Species/Cell Type: Escherichia coli polA (W3119 vs P3478), Assay Type: Rec-assay, DNA effects (bacterial DNA repair), Assay Code: RE1+, Evaluation Type: Evaluation A (Pre-1980)
# [11] = Species/Cell Type: Mouse, Sex: Male, Assay Type: Sperm morphology, Assay Code: SPI-, Evaluation Type: Evaluation A (Pre-1980)
# [12] = Species/Cell Type: Nonhuman, Assay Type: Sister-chromatid exchange (SCE) in vivo, Assay Code: SC3+, Evaluation Type: Evaluation B (Post-1980)
smiles,measurement,setting,value
Nc1ncn([C@@H]2O[C@H](CO)[C@@H](O)[C@H]2O)c(=O)n1,mutagenic call,[1],active; positive
same,mutagenic call,[2],active; positive
same,mutagenic call,"Species/Cell Type: Mouse (C3H/10T1/2) cells, Assay Type: Cell transformation, Assay Code: CTH+, Evaluation Type: Evaluation A (Pre-1980)",active; positive
same,call,"Species/Cell Type: Nonhuman, Assay Type: In vivo carcinogenicity studies, Assay Code: CCG+L, Evaluation Type: Evaluation A (Pre-1980)",active; positive
same,mutagenic call,"Species/Cell Type: Nonhuman, Assay Type: Sister-chromatid exchange (SCE) in vitro, Assay Code: SC2+D, Dose Response: With dose response, Evaluation Type: Evaluation B (Post-1980)",active; positive
O=c1[nH]cc[nH]1,mutagenic call,[3],no conclusion
Nc1nc(-c2ccc([N+](=O)[O-])[nH]2)cs1,mutagenic call,[4],no conclusion
NC[C@@H](O)CCl,mutagenic call,[5],inactive; negative
CN1CCC(=C2c3ccccc3C=Cc3ccccc32)CC1,mutagenic call,[4],no conclusion
C(=C\c1ccccc1)/c1ccccc1,mutagenic call,"Species/Cell Type: Salmonella typhimurium (one or more of the five standard strains: TA98, TA100, TA1535, TA1537, and TA1538), Assay Type: Histidine reverse gene mutation, Ames assay, Assay Code: SAL-, Evaluation Type: Evaluation A (Pre-1980)",inactive; negative
CNC(=O)C[C@@H](N)C(=O)N[C@@H](C(=O)N[C@@H]1C(=O)N2[C@@H]1SC(C)(C)[C@@H]2C(=O)O)c1ccc(O)cc1,mutagenic call,"Species/Cell Type: Mammalian polychromatic erythrocytes, Assay Type: Micronucleus test, chromosome aberrations, Assay Code: MNTT, Evaluation Type: Evaluation B (Post-1980)",no conclusion
c1ccc2c(c1)Nc1ccccc1S2,mutagenic call,"Species/Cell Type: Syrian hamster embryo (SA7/SHE) cells, Assay Type: Cell transformation, viral enhanced, Assay Code: CT7+, Evaluation Type: Evaluation A (Pre-1980)",active; positive
CC(C)O,mutagenic call,"Species/Cell Type: Neurospora crassa, Assay Type: Aneuploidy, chromosome aberrations, Assay Code: NEN-, Evaluation Type: Evaluation A (Pre-1980)",inactive; negative
same,mutagenic call,"Species/Cell Type: Syrian hamster embryo (SA7/SHE) cells, Assay Type: Cell transformation, viral enhanced, Assay Code: CT7-, Evaluation Type: Evaluation A (Pre-1980)",inactive; negative
CC(=O)NS(=O)(=O)c1ccc(N)cc1,mutagenic call,"Species/Cell Type: Neurospora crassa, Assay Type: Aneuploidy, chromosome aberrations, Assay Code: NEN+, Evaluation Type: Evaluation A (Pre-1980)",active; positive
same,mutagenic call,"Species/Cell Type: Saccharomyces cerevisiae, Assay Type: Aneuploidy, chromosome aberrations, Assay Code: YEN+, Evaluation Type: Evaluation A (Pre-1980)",active; positive
NC[C@H](O)CCl,mutagenic call,"Species/Cell Type: Rat, Sex: Male, Assay Type: Sperm morphology, Assay Code: SPA+, Evaluation Type: Evaluation A (Pre-1980)",active; positive
same,mutagenic call,[5],inactive; negative
COc1ccc2c3c([nH]c2c1)[C@H](CC(C)(C)O)N1C(=O)[C@@H]2CCCN2C(=O)[C@]1(O)[C@H]3O,mutagenic call,[4],no conclusion
CS(=O)(=O)OCCNC(=O)N(CCCl)N=O,mutagenic call,"Species/Cell Type: Drosophila melanogaster, Assay Type: Sex-linked recessive lethal gene mutation, Assay Code: SRL+, Evaluation Type: Evaluation A (Pre-1980)",active; positive
same,mutagenic call,"Species/Cell Type: Saccharomyces cerevisiae, Assay Type: Mitotic recombination or gene conversion, Assay Code: YEC+, Evaluation Type: Evaluation A (Pre-1980)",active; positive
O=C(O)[C@@H]1[C@H](C(=O)O)[C@H]2CC[C@@H]1O2,mutagenic call,"Species/Cell Type: Allium cepa, Assay Type: Chromosome aberrations, Assay Code: ALC+, Evaluation Type: Evaluation A (Pre-1980)",active; positive
Cc1cc(O)c2c(c1)C(=O)c1cc(OC3O[C@@H](C)[C@H](O)[C@@H](O)[C@H]3O)cc(O)c1C2=O (some centres not stated),mutagenic call,[6],active; positive
CSCCC(N)C(=O)O (configuration not stated),mutagenic call,[7],no conclusion
CC(=O)Nc1nc(-c2csc(NC(C)=O)n2)cs1,mutagenic call,[4],no conclusion
CS/C(C)=N/OC(=O)N(C)N=O,mutagenic call,[8],active; positive
CC(=O)OC(OC(C)=O)c1ccc([N+](=O)[O-])o1,mutagenic call,"Species/Cell Type: Escherichia coli WP2 UVRA, Assay Type: Tryptophan reverse gene mutation, Assay Code: WPU+, Evaluation Type: Evaluation A (Pre-1980)",active; positive
same,mutagenic call,[9],active; positive
same,mutagenic call,[8],active; positive
CC(C)C(N)C(=O)O (configuration not stated),mutagenic call,[7],no conclusion
CCN(CC)CCCC(C)Nc1c2ccc(Cl)cc2nc2ccc(OC)cc12 (configuration not stated),mutagenic call,[10],active; positive
same,mutagenic call,[1],active; positive
same,mutagenic call,[2],active; positive
same,mutagenic call,"Species/Cell Type: Mammalian polychromatic erythrocytes, Assay Type: Micronucleus test, chromosome aberrations, Assay Code: MNT+, Evaluation Type: Evaluation B (Post-1980)",active; positive
same,mutagenic call,"Species/Cell Type: Mammalian polychromatic erythrocytes, Assay Type: Micronucleus test, chromosome aberrations, Assay Code: MNTT, Evaluation Type: Evaluation A (Pre-1980)",no conclusion
same,mutagenic call,[11],inactive; negative
O=c1[nH]c2ccccc2n1CCCN1CCC(n2c(=O)[nH]c3cc(Cl)ccc32)CC1,mutagenic call,"Species/Cell Type: Mammalian polychromatic erythrocytes, Assay Type: Micronucleus test, chromosome aberrations, Assay Code: MNT+U, Dose Response: Unconfirmed positive response, Evaluation Type: Evaluation B (Post-1980)",active; positive
NC(=O)N(CCO)N=O,mutagenic call,[8],active; positive
O=C(COc1ccc(Br)cc1CN1CCCCC1)N/N=C/c1ccccc1O,mutagenic call,"Species/Cell Type: Saccharomyces cerevisiae, Assay Type: Reverse gene mutation, Assay Code: YERT, Evaluation Type: Evaluation A (Pre-1980)",no conclusion
CCC1(c2ccccc2)C(=O)NC(=O)N(C(=O)c2ccccc2)C1=O (configuration not stated),mutagenic call,"Species/Cell Type: Rodents, Sex: Male, Assay Type: Dominant lethal test, Assay Code: DLTT, Evaluation Type: Evaluation A (Pre-1980)",no conclusion
same,mutagenic call,"Species/Cell Type: Salmonella typhimurium, Assay Type: Forward and reverse gene mutation, host-mediated assay, Assay Code: HMA-, Evaluation Type: Evaluation A (Pre-1980)",inactive; negative
CC1CN(N=O)C(C)CN1N=O (configuration not stated),mutagenic call,[6],active; positive
O=C(CCNNC(=O)c1ccncc1)NCc1ccccc1,mutagenic call,[12],active; positive
same,mutagenic call,[8],active; positive
CC(C)Oc1cc(-n2nc(C(C)(C)C)oc2=O)c(Cl)cc1Cl,mutagenic call,"Species/Cell Type: Saccharomyces cerevisiae, Assay Type: Mitotic recombination or gene conversion, Assay Code: YEC-, Evaluation Type: Evaluation A (Pre-1980)",inactive; negative
OCCI,mutagenic call,[10],active; positive
same,mutagenic call,[11],inactive; negative
same,mutagenic call,[8],active; positive
O=S(=O)(O)c1cc(S(=O)(=O)O)c2c(N=Nc3ccccc3)c(O)ccc2c1,mutagenic call,"Species/Cell Type: Bacillus subtilis (H17 vs M45), Assay Type: Rec-assay, spot test, DNA effects (bacterial DNA repair), Assay Code: REWT, Evaluation Type: Evaluation A (Pre-1980)",no conclusion
ON=C1CCCCC1,mutagenic call,[3],no conclusion
O=S1(=O)OC(c2cc(Br)c(O)c(Br)c2)(c2cc(Br)c(O)c(Br)c2)c2ccccc21,mutagenic call,[4],no conclusion
OC(CCl)CCl,mutagenic call,[6],active; positive
NC(=O)N1C2=CC=CCC2=C(CO)c2ccccc21,mutagenic call,"Species/Cell Type: Human lymphocytes, Assay Type: Sister-chromatid exchange (SCE) in vitro, Assay Code: SCLT, Evaluation Type: Evaluation B (Post-1980)",no conclusion
same,mutagenic call,"Species/Cell Type: Human, Assay Type: Sister-chromatid exchange (SCE) in vitro, Assay Code: SC1T, Evaluation Type: Evaluation B (Post-1980)",no conclusion
COc1cc2c3cc1Oc1cc(ccc1O)C[C@@H]1c4c(cc(OC)c(O)c4Oc4ccc(cc4)C[C@@H]3N(C)CC2)CC[N+]1(C)C,mutagenic call,[7],no conclusion
same,mutagenic call,[4],no conclusion
CC(=O)Oc1ccc2c3c1O[C@H]1[C@@H](OC(C)=O)C=C[C@H]4[C@@H](C2)N(C)CC[C@@]341,mutagenic call,[12],active; positive
ClC1=C(Cl)[C@]2(Cl)[C@@H]3[C@@H](Cl)[C@H]4O[C@H]4[C@@H]3[C@@]1(Cl)C2(Cl)Cl,mutagenic call,[3],no conclusion
same,mutagenic call,[5],inactive; negative
same,mutagenic call,[4],no conclusion
[Cl][Cr]([Cl])[Cl],mutagenic call,"Species/Cell Type: Bacillus subtilis (H17 vs M45), Assay Type: Rec-assay, spot test, DNA effects (bacterial DNA repair), Assay Code: REW-, Evaluation Type: Evaluation A (Pre-1980)",inactive; negative
same,mutagenic call,"Species/Cell Type: Human lymphocytes, Assay Type: Sister-chromatid exchange (SCE) in vitro, Assay Code: SCL-, Evaluation Type: Evaluation B (Post-1980)",inactive; negative
same,mutagenic call,"Species/Cell Type: Human, Assay Type: Sister-chromatid exchange (SCE) in vitro, Assay Code: SC1-, Evaluation Type: Evaluation B (Post-1980)",inactive; negative
same,mutagenic call,"Species/Cell Type: Mammalian oocytes or early embryo, Assay Type: Chromosome aberrations in vivo, Assay Code: CYO-, Evaluation Type: Evaluation A (Pre-1980)",inactive; negative
same,mutagenic call,[9],active; positive
same,mutagenic call,"Species/Cell Type: Nonhuman, Assay Type: Sister-chromatid exchange (SCE) in vitro, Assay Code: SC2T, Evaluation Type: Evaluation B (Post-1980)",no conclusion
same,mutagenic call,[4],no conclusion
